Here are results for four compounds from patent publication US6221901A, “Magnesium (-)hydroxycitrate, method of preparation, applications, and compositions in particular pharmaceutical containing same” (priority 1996, dated 2001).

Where two headings read alike, the source gives them in different places.

Data set [1] deals with rat arterial smooth muscle cells. Nature of the data set: Accumulation of intracellular lipids in arterial smooth muscle cells. In kind it is cell-based. The following applies: for Reduction in percentages: accumulation of lipids: in culture medium: (-)hydroxycitrate 0.1 mM, silicon 0.036 mM, magnesium 0.1 mM. The procedure: (§1) 1) Study of the Mortality of Human Epithelial Cells and of Rat Arterial Smooth Muscle Cells.
(§2) The inhibitory effects of these compounds on the proliferation of arterial smooth muscle and on the accumulation of intracellular lipids was also tested using the method described by Shrivastava et al. in Meth. Find. Exp. Clin. Pharmacol. 15 (6), pages 345-350, 1993.
(§3) The various products were respectively tested at the following concentrations: […]

For data set [2], the system named is human epithelial cells and rat arterial smooth muscle cells. The data set can be described thus: Mortality of human epithelial cells and of rat arterial smooth muscle cells (antioxidant effect, model of oxygen toxicity). In kind it is cell-based. The settings on record: for protective effect on cell mortality: result in words; for Reduction in percentages: cell mortality: in culture medium: (-)hydroxycitrate 0.1 mM, silicon 0.036 mM, magnesium 0.1 mM. The procedure:
as §1
The antioxidant effects of (-)hydroxycitrate and of different minerals were tested according to the protocol described by Michiels et al: "A new experimental model to study oxygen toxicity", Arch. int. Physiol. Biochem. 94 (5), S13-S18, 1986, using rat hepatocytes, as well as human epithelial cells and rat arterial smooth muscle cells.
as §3

The conditions of data set [3]: literature, Majeed et al. 1994; in words; cited from earlier work.
In data set [4] the test system is rat arterial smooth muscle cells. Nature of the data set: Proliferation of arterial smooth muscle cells. The following applies: for Reduction in percentages: proliferation of cells: in culture medium: (-)hydroxycitrate 0.1 mM, silicon 0.036 mM, magnesium 0.1 mM. The format is cell-based. The procedure: as §1, §2, §3
The subject of data set [5] is hypercholesterolemic rabbit. The format is in vivo. On the procedure: 3) Study of Antiatherosclerotic Effects in the Hypercholesterolemic Rabbit.
Two batches of 15 male rabbits (Elevage scientifique des Dombes: 2.5-3 kg) received a cholesterol-rich food: 0.2% for the period D+8 to D+37, then 1% until D+69, when the animals are sacrificed.
The first batch was not treated and therefore served as a control while the second batch received 500 mg/kg of magnesium (-)hydroxycitrate by oral route.

For data set [6], the system named is hypercholesterolemic rabbits. The data set can be described thus: Effect in vivo on the cholesterol level in hypercholesterolemic rabbits. Set-up: species or system rabbit. The following applies: 750 mg/kg oral. On the procedure:
(§4) 2) Study of the Effect in vivo on the Cholesterol Level and on Lipidic Deposits in Hypercholesterolemic Rabbits.
(§5) Two batches of 20 male rabbits (Elevage scientifique des Dombes: 2.5-3 kg) received a cholesterol-rich food (1%) for a period of 8 weeks. The first batch were not treated and therefore served as a control while the second batch received 750 mg/kg of magnesium (-)hydroxycitrate by oral route.

Data set [7] relates to wall of the aorta, hypercholesterolemic rabbits. The data set can be described thus: Lipidic deposits on the wall of the aorta in hypercholesterolemic rabbits. In kind it is in vivo, rabbit. The settings on record: 750 mg/kg oral. On the procedure: as §4, §5
Data set [8] in a line: in vivo. The settings on record: rat. From the text:
The toxicity of magnesium (-)hydroxycitrate is greater than 2 g/kg by intraperitoneal route or than 7 g/kg per os in the rat. That of metals, in particular in the form of salts or mineral oxides (frequently administered as trace elements) is well known.

In data set [9] the test system is hypertensive rat. The data set can be described thus: Anti-hypertensive activity in the hypertensive rat. In kind it is in vivo. The following applies: 500 mg/kg/day oral, one week, vs untreated controls. On the procedure:
4) Study of Anti-hypertensive Activity in the Hypertensive Rat
Magnesium (-)hydroxycitrate was tested on 12 hypertensive rats. A batch of 12 other hypertensive rats was used as a control batch. An average reduction in arterial pressure of 17%±3% with respect to the controls (untreated) was noted after one week of treatment at a rate of 500 mg per kilogram per day by oral route.

Where [10] appears, read: 500 mg/kg/day oral, 62 days, vs controls.
[11] abbreviates: result in words, with respect to (-)hydroxycitrate or magnesium.

Take `O=C(O)CC(O)(C(=O)O)C(O)C(=O)O` (single isomer, unassigned; (-)) [(-)hydroxycitrate, (-)hydroxycitric acid]: the “Reduction in percentages: accumulation of lipids” value in data set [1] is given as 16 (±3) %. In addition, the “protective effect on cell mortality” value in [2] is recorded as “no protective effect on cell mortality”. Also, the body weight entry in data set [3] is recorded as “reduces body weight”. In data set [4], the “Reduction in percentages: proliferation of cells” value was 6 (±4) %.

As to `O=C(O)C[C@@](O)(C(=O)O)[C@H](O)C(=O)O` [Magnesium (-)hydroxycitrate, magnesium (-)hydroxycitrate], in [5] (500 mg/kg/day oral, 62 days), the “Reduction in weight of spleen” value is reported as -20.3% and the “Reduction in weight of surrenal glands” value is reported as -21.6%. Besides, in [5] (500 mg/kg/day oral, 62 days, vs control batch), the “Reduction in lipidic deposits on the aortic vascular wall” value was found to be 46.3%. Moreover, in data set [5] (setting [10]), the “Reduction in the total cholesterol level” value was -13.75%, the “Reduction in the total cholesterol/HDL ratio” value is recorded as -25.72% and the “increase in HDL levels” value is recorded as “+12.5%”. Further, the “Reduction in LDL's” value in data set [5] (500 mg/kg/day oral, 62 days, vs controls, given without sign) is recorded as 16.36%. In [5] (500 mg/kg/day oral, 62 days, in words), the “weight of heart, liver” value is recorded as “Reduction in weight of heart, liver”. For the same compound, the “overall effect on the hypercholesterolemic rabbit” value in data set [5] (non-cytotoxic doses, in words) was “hypocholesterolemia and anti-atherosclerotic effect”. For the same compound, the “Reduction in percentages: accumulation of lipids” value in [1] is 81 (±13) %. In addition, the “effect on accumulation of lipids” value in data set [1] (setting [11]) is given as “very significant increase in the effects”. In data set [6] (4 weeks, vs controls), the “HDL's, variation” value is on record as “+8.5%”; the “LDL's, variation” value is recorded as -22.4%; the “Total cholesterol, variation” value is -19.5%; the “Total cholesterol/HDL ratio, variation” value is -28.2%. Further, in data set [6] (after 4 weeks), the “HDL's, in words” value was “increase in HDL's” and the “LDL's, in words” value is reported as “reduction in LDL's”. Moreover, in data set [6] (after 4 weeks of treatment), the “HDL's” value was determined as 0.246 g/L, the “LDL's” value stood at 4.00 g/L, the Total cholesterol was found to be 4.47 g/L and the “Total cholesterol/HDL ratio” value is 19.22. In addition, in data set [7] (4 weeks), the “number of lipidic deposits, aortic arch, week 4” value is 3.5 and the “number of lipidic deposits, thoracic arch, week 4” value is 0.0. In addition, in data set [7] (8 weeks), the “number of lipidic deposits, aortic arch, week 8” value is recorded as 1.5 and the “number of lipidic deposits, thoracic arch, week 8” value amounted to 0.0. For the same compound, in data set [7] (after 4 weeks and after 8 weeks), the “number of lipidic deposits, in words” value is “reduction in the number of lipidic deposits”. The “number of lipidic deposits, total” value in [7] (sum of aortic and thoracic arch, weeks 4 and 8) came out at 5.0. Further, in [7] (vs controls), the “lipidic deposits, total, Variation %” value is on record as -80.4%. In data set [2], the “protective effect on cell mortality” value is reported as “more protective effect”. Besides, the LD50 in [8] (ip, intraperitoneal, read-out: toxicity, intraperitoneal route) was > 2000 mg/kg. In addition, the LD50 in data set [8] (po, per os, read-out: toxicity, per os) is > 7000 mg/kg. Further, in [4], the “Reduction in percentages: proliferation of cells” value is recorded as 48 (±8) %. Also, the “effect on cell proliferation” value in data set [4] (setting [11]) is recorded as “very significant increase in the effects”. For the same compound, the “average reduction in arterial pressure” value in data set [9] is given as 17%±3%.

Turning to Magnesium, the “Reduction in percentages: accumulation of lipids” value in data set [1] is 20 (±9) %. Also, in data set [2], the “Reduction in percentages: cell mortality” value is 6 (±3) % and the “protective effect on cell mortality” value is given as “reduces this mortality very slightly”. For the same compound, in [4], the “Reduction in percentages: proliferation of cells” value is reported as 2 (±2) %.

As for Silicon, in data set [1], the “Reduction in percentages: accumulation of lipids” value was 32 (±5) %. The “Reduction in percentages: cell mortality” value in [2] was 28 (±7) %. In data set [4], the “Reduction in percentages: proliferation of cells” value is 28 (±6) %.
